Patent US20240299303A1, “NANOSTRUCTURE OR MICROSTRUCTURE AND METHOD FOR PRODUCING SAME” (The University of Tokyo, priority 2021, published 2024)

Legend:
Format in all cases: physicochemical
[1] = Introduction of compounds into nanosheets, absorbance of supernatant after centrifugation; settings: for introduction amount relative to the weight of the nanosheets: Examples 4-8; for introduction amount relative to the weight of the nanosheets / Weight of introduced compound/weight of nanosheets: crosslinked β-cyclodextrin nanosheets; for Weight of introduced compound/weight of nanosheets: Table 1; for Concentration of introduced compound before introduction: in nanosheet dispersion, defined in consideration of dilution with moisture in the dispersion; for Concentration of introduced compound before introduction / Concentration of introduced compound after introduction: nanosheets 43 mg/mL (Examples 4-6) or 17 mg/mL (Examples 7-8); for amount of compound introduced into the nanosheets (reduction in concentration before and after introduction): nanosheets 43 mg/mL (Examples 4-6) or 17 mg/mL (Example 8); for Concentration of introduced compound after introduction: supernatant after shaking at room temperature 48 hours and centrifugation, absorbance
Experimental: (§1) 700 Microliters of an aqueous solution (300 μg/mL) of 5-fluorouracil was added to 500 mg of the nanosheet dispersion-1 obtained in Example 1, and the mixture was shaken at room temperature for 48 hours. The nanosheet dispersion having introduced thereinto 5-fluorouracil was centrifuged (at 12,000 rpm for 10 minutes), and the supernatant liquid was collected.
The introduction amount of 5-fluorouracil was determined by the same process as that of Example 4 except that a concentration-absorbance calibration curve was produced at a predetermined wavelength (λ=270 nm).
as §1, with “(100” for “(300”, “hydrocortisone” for “5-fluorouracil”
The introduction amount of hydrocortisone was determined by the same process as that of Example 4 except that a concentration-absorbance calibration curve was produced at a predetermined wavelength (λ250 nm).
as §1, with “500” for “700”, “(30” for “(300”, “betamethasone” for “5-fluorouracil”, “100” for “500”
The introduction amount of betamethasone was determined by the same process as that of Example 4 except that a concentration-absorbance calibration curve was produced at a predetermined wavelength (λ=250 nm).
as §1, with “500” for “700”, “(30” for “(300”, “menadione” for “5-fluorouracil”, “100” for “500”
The introduction amount of menadione was determined by the same process as that of Example 4 except that a concentration-absorbance calibration curve was produced at a predetermined wavelength (λ=250 nm).

[2] = Introduction of molecules into crosslinked body of porous microstructural body (UV-visible, supernatant); settings: adsorption from aqueous dispersion; Example 10
Experimental: A low-molecular weight compound was added, and caused to adsorb, to the aqueous dispersion of the porous γ-PPG4k-Plate crosslinked body, and then the porous γ-PPG4k-Plate crosslinked body was sedimented by centrifugation. The concentration of the low-molecular weight compound present in the supernatant liquid obtained at that time was determined by a UV-visible spectral method. Thus, the amount of the low-molecular weight compound adsorbing to the porous γ-PPG4k-Plate crosslinked body was determined.

[3] = Introduction of molecules into porous nanosheet crosslinked body (UV-visible, supernatant); settings: adsorption from aqueous dispersion; Example 9
Experimental: A low-molecular weight compound was added, and caused to adsorb, to the aqueous dispersion of the porous γ-plu108-NS crosslinked body, and then the porous γ-plu108-NS crosslinked body was sedimented by centrifugation. The concentration of the low-molecular weight compound present in the supernatant liquid obtained at that time was determined by a UV-visible spectral method. Thus, the amount of the low-molecular weight compound adsorbing to the porous γ-plu108-NS crosslinked body was determined.

[4] = Introduction of rhodamine B into crosslinked nanosheets (fluorescence microscope); settings: rhodamine B 100 μg/mL aqueous solution, shaken room temperature 24 hours, diluted fivefold
Experimental: 900 Microliters of an aqueous solution (100 μg/mL) of rhodamine B was added to 50 mg of the nanosheet dispersion-1 (sample IT-162) obtained in Example 1, and the mixture was shaken at room temperature for 24 hours. […] The results are shown in FIG. 10(A) and FIG. 10(B), respectively. The crystal structures of nanosheets were able to be observed with the phase-contrast microscope.

[5] = Introduction of rhodamine B into uncrosslinked nanosheets (fluorescence microscope); settings: rhodamine B 1,000 μg/mL aqueous solution, shaken room temperature 24 hours
Experimental: 100 Microliters of an aqueous solution (1,000 μg/mL) of rhodamine B was added to 90 mL of the uncrosslinked nanosheet dispersion (sample IT-142) obtained in Comparative Example 1, and the mixture was shaken at room temperature for 24 hours. […] The results are shown in FIG. 11(A) and FIG. 11(B), respectively. The crystal structures of nanosheets were able to be observed with the phase-contrast microscope.

| SMILES | introduction amount relative to the weight of the nanosheets [1] [wt %] | Weight of introduced compound/weight of nanosheets [1] [%] | Concentration of introduced compound before introduction [1] [ng/mL] | amount of compound introduced into the nanosheets (reduction in concentration before and after introduction) [1] [µg/mL] | Concentration of introduced compound after introduction [1] [ng/mL] | introduction into the porous γ-PPG4k-Plate crosslinked body [2] | also measured |
| --- | --- | --- | --- | --- | --- | --- | --- |
| C[C@]12CCC(=O)C=C1CC[C@@H]1[C@@H]2[C@@H](O)C[C@@]2(C)[C@H]1CC[C@]2(O)C(=O)CO [Hydrocortisone, hydrocortisone] | 0.08 | 0.08 | 61000 | 35 | 26000 |  |  |
| O=c1[nH]cc(F)c(=O)[nH]1 [5-Fluorouracil, 5-fluorouracil] | 0.10 | 0.10 | 183000 | 45 | 138000 |  |  |
| CCCCC/C=C\C/C=C\CCCCCCCC(=O)O [linoleic acid] |  |  |  |  |  |  | ratio of the weight of the low-molecular weight compound to the total sum of the weights of the compound and the porous γ-PPG4k-Plate crosslinked body [2]: 0.9 wt %; ratio of the weight of the low-molecular weight compound to the total sum of the weights of the compound and the porous γ-plu108-NS crosslinked body [3]: 5.3 wt % |
| O=C(O)CCCC[C@@H]1SC[C@@H]2NC(=O)N[C@@H]21 [biotin] |  |  |  |  |  | not introduced |  |
| O=c1ccc2ccccc2o1 [coumarin] |  |  |  |  |  |  | ratio of the weight of the low-molecular weight compound to the total sum of the weights of the compound and the porous γ-PPG4k-Plate crosslinked body [2]: 0.6 wt %; ratio of the weight of the low-molecular weight compound to the total sum of the weights of the compound and the porous γ-plu108-NS crosslinked body [3]: 0.5 wt % |
| CC1=CC(=O)c2ccccc2C1=O [Menadione, menadione] | 0.09 | 0.09 | 25000 | 15 | 10000 |  |  |

More lines, main results first:

| introduction amount relative to the weight of the nanosheets [1] [wt %] | Weight of introduced compound/weight of nanosheets [1] [%] | Concentration of introduced compound before introduction [1] [ng/mL] | amount of compound introduced into the nanosheets (reduction in concentration before and after introduction) [1] [µg/mL] | Concentration of introduced compound after introduction [1] [ng/mL] | introduction into the porous γ-PPG4k-Plate crosslinked body [2] | SMILES | also measured |
| --- | --- | --- | --- | --- | --- | --- | --- |
|  |  |  |  |  | not introduced | O=C(O)c1cccnc1 [nicotinic acid] |  |
|  |  |  |  |  | not introduced | CCN(CC)c1ccc2c(-c3ccccc3C(=O)O)c3ccc(=[N+](CC)CC)cc-3oc2c1.[Cl-] [rhodamine B] | fluorescent coloring in the crystal structures (rhodamine B introduction) [4]: fluorescent coloring was observed; fluorescent coloring in the crystal structures (rhodamine B introduction) [5]: almost no fluorescent coloring was observed |
|  |  |  |  |  | not introduced | CCN[C@H]1C[C@H](C)S(=O)(=O)c2sc(S(N)(=O)=O)cc21 [dorzolamide] |  |
